US8367658B2, “Pyrazin-2-yl-pyridin-2-yl-amine and pyrazin-2-yl-pyrimidin-4-yl-amine compounds and their use” (Cancer Research Technology Limited, priority 2007, dated 2013)
Where “and” joins values, the source holds several entries; their conditions need not be identical. Equal values may be shown once.

These compounds were tested against T1, CHK1 (Homo sapiens, UniProt O14757) (assay: CHK1 kinase function inhibition assay (DELFIA, phosphorylation of a CDC25C peptide)). Details: CHK1 1 nM, ATP 30 μM, 30 minutes at room temperature.
T1 sequence (O14757 1-476): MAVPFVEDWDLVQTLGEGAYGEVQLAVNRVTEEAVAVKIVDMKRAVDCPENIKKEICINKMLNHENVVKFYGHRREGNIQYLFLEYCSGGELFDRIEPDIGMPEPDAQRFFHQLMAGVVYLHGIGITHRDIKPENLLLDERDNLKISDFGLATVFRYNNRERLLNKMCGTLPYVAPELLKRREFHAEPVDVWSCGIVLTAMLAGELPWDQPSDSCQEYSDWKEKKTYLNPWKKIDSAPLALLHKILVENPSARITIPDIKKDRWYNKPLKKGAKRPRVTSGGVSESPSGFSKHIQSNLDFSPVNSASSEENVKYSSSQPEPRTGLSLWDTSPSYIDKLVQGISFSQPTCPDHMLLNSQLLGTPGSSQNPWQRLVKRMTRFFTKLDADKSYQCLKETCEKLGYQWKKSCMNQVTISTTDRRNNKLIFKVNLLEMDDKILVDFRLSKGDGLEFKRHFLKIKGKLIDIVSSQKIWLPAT
Type: biochemical
Experimental: Measurement of Inhibition of CHK1 Kinase Function
CHK1 kinase function was measured in a DELFIA® assay in order to monitor phosphorylation of a CDC25C peptide using a specific phospho antibody.
The reaction mixture was incubated for 30 minutes at room temperature and then stopped by the addition of buffer (125 μL) containing 40 mM EDTA, 0.05% Tween 20, 0.1% BSA in TBS (10× concentrate, Sigma). An aliquot (100 μL) of the stopped reaction mixture was transferred to a black neutravidin-coated plate (Perbio) and incubated for 1 hour on a shaker (Titertek, Flow Laboratories) at room temperature. […] The plates were washed a further four times with wash buffer before the addition of enhancement solution (100 μL/well, PerkinElmer Life Sciences).

`N#Cc1cnc(Nc2cc(NCC3CCCNC3)c(N3CCC(O)C3)cn2)cn1` (stereo in doubt) [Compound Y-061, 5-(5-(3-Hydroxypyrrolidin-1-yl)-4-((R)-piperidin-3-ylmethylamino)pyridin-2-ylamino) pyrazine-2-carbonitrile] was tested. Which IC50 did it give?
Its IC50 is at most 100 nM.

For `COC(=O)c1cnc(Nc2cnc(C#N)cn2)cc1N[C@H]1CC2CC[C@H](C1)N2C(=O)OC(C)(C)C` (stereo in doubt) [Compound Y-074, (1R,5R)-tert-Butyl 3-(2-(5-cyanopyrazin-2-ylamino)-5-(methoxycarbonyl)pyridin-4-ylamino)-8-azabicyclo[3.2.1]octane-8-carboxylate], which IC50 is on record?
Its IC50 is 1000 to 10000 nM.

With `N#Cc1cnc(Nc2cc(NCC3CCNCC3)c(N)cn2)cn1` [Compound Y-001, 5-(5-Amino-4-(piperidin-4-ylmethylamino)pyridin-2-ylamino)pyrazine-2-carbonitrile] as the compound, how does the IC50 read?
Its IC50 is ≤ 1000 nM and 100 to 1000 nM.

Which IC50 does the source give for `N#Cc1cnc(Nc2cc(NCCN)c(N)cn2)cn1` [Compound Y-003, 5-(5-Amino-4-(2-aminoethylamino)pyridin-2-ylamino)pyrazine-2-carbonitrile] here?
Its IC50 is ≤ 1000 nM and 660 nM and 100 to 1000 nM.

With `CN(C)CCNc1cc(Nc2cnc(C#N)cn2)ncc1N` [Compound Y-004, 5-(5-Amino-4-(2-(dimethylamino)ethylamino)pyridin-2-ylamino)pyrazine-2-carbonitrile] as the compound, how does the IC50 read?
The IC50 was 1000 to 10000 nM.

With `N#Cc1cnc(Nc2cc(NC3CCNCC3)c(N)cn2)cn1` [Compound Y-005, 5-(5-Amino-4-(piperidin-4-ylamino)pyridin-2-ylamino)pyrazine-2-carbonitrile] as the compound, how does the IC50 read?
Its IC50 is ≤ 1000 nM and 100 to 1000 nM.

How did the IC50 turn out when `CN1C2CCC1CC(Nc1cc(Nc3cnc(C#N)cn3)ncc1N)C2` (stereo not shown) [Compound Y-006, 5-(5-Amino-4-(8-methyl-8-aza-bicyclo[3.2.1]octan-3-ylamino)-pyridin-2-ylamino)pyrazine-2-carbonitrile] was run?
The IC50 was 1000 to 10000 nM.

With `CN1CCC(Nc2cc(Nc3cnc(C#N)cn3)ncc2N)CC1` [Compound Y-007, 5-(5-Amino-4-(1-methylpiperidin-4-ylamino)pyridin-2-ylamino)pyrazine-2-carbonitrile] as the compound, how does the IC50 read?
Its IC50 is at most 100 nM.

For `N#Cc1cnc(Nc2cc(N[C@@H]3CCCNC3)c(N)cn2)cn1` [Compound Y-008, (R)-5-(5-Amino-4-(piperidin-3-ylamino)pyridin-2-ylamino)pyrazine-2-carbonitrile], which IC50 is on record?
The IC50 was ≤ 1000 nM and 100 to 1000 nM.

`N#Cc1cnc(Nc2cc(N[C@H]3CCCNC3)c(N)cn2)cn1` [Compound Y-009, (S)-5-(5-Amino-4-(piperidin-3-ylamino)pyridin-2-ylamino)pyrazine-2-carbonitrile] was tested. Which IC50 did it give?
The IC50 was 1000 to 10000 nM.

How did the IC50 turn out when `CN(C)CC(=O)Nc1cnc(Nc2cnc(C#N)cn2)cc1NCC1CCNCC1` [Compound Y-010, N-(6-(5-Cyanopyrazin-2-ylamino)-4-(piperidin-4-ylmethylamino)pyridin-3-yl)-2-(dimethylamino)acetamide] was run?
Its IC50 is ≤ 1000 nM and 100 to 1000 nM.

How did the IC50 turn out when `N#Cc1cnc(Nc2cc(NCC3CCNCC3)c(NC(=O)CCN3CCCCC3)cn2)cn1` [Compound Y-011, N-(6-(5-Cyanopyrazin-2-ylamino)-4-(piperidin-4-ylmethylamino)pyridin-3-yl)-3-(piperidin-1-yl)propanamide] was run?
The IC50 was 1000 to 10000 nM.

`COc1ccc(CCC(=O)Nc2cnc(Nc3cnc(C#N)cn3)cc2NCC2CCNCC2)cc1` [Compound Y-012, N-(6-(5-Cyanopyrazin-2-ylamino)-4-(piperidin-4-ylmethylamino)pyridin-3-yl)-3-(4-methoxyphenyl)propanamide] was tested. Which IC50 did it give?
Its IC50 is 1000 to 10000 nM.

`COc1ccc(CC(=O)Nc2cnc(Nc3cnc(C#N)cn3)cc2NCC2CCNCC2)cc1` [Compound Y-013, N-(6-(5-Cyanopyrazin-2-ylamino)-4-(piperidin-4-ylmethylamino)pyridin-3-yl)-2-(4-methoxyphenyl)acetamide] was tested. Which IC50 did it give?
The IC50 was 1000 to 10000 nM.

Which IC50 does the source give for `CN(C)CC(=O)Nc1cnc(Nc2cnc(C#N)cn2)cc1NC1CC2CCC(C1)N2C` (stereo not shown) [Compound Y-015, N-(6-(5-Cyanopyrazin-2-ylamino)-4-(8-methyl-8-aza-bicyclo[3.2.1]octan-3-ylamino)pyridin-3-yl)-2-(dimethylamino)acetamide] here?
Its IC50 is 1000 to 10000 nM.

For `CN(C)CC(=O)Nc1cnc(Nc2cnc(C#N)cn2)cc1NC1CCNCC1` [Compound Y-016, N-(6-(5-Cyanopyrazin-2-ylamino)-4-(piperidin-4-ylamino)pyridin-3-yl)-2-(dimethylamino)acetamide], which IC50 is on record?
Its IC50 is ≤ 1000 nM and 100 to 1000 nM.

With `COC(=O)c1cnc(Nc2cnc(C#N)cn2)cc1N(C)CC1CCNCC1` [Compound Y-021, Methyl 6-(5-cyanopyrazin-2-ylamino)-4-(methyl(piperidin-4-ylmethyl)amino)nicotinate] as the compound, how does the IC50 read?
Its IC50 is at most 100 nM.

With `COC(=O)c1cnc(Nc2cnc(C#N)cn2)cc1NC(C)C1CCNCC1` (stereo not shown) [Compound Y-022, Methyl 6-(5-cyanopyrazin-2-ylamino)-4-(1-(piperidin-4-yl)ethylamino)nicotinate] as the compound, how does the IC50 read?
The IC50 was at most 100 nM.

With `COC(=O)c1cnc(Nc2cnc(C#N)cn2)cc1NC1CC(C)(C)N(C)C(C)(C)C1` [Compound Y-024, Methyl 6-(5-cyanopyrazin-2-ylamino)-4-(1,2,2,6,6-pentamethylpiperidin-4-ylamino)nicotinate] as the compound, how does the IC50 read?
Its IC50 is ≤ 1000 nM and 100 to 1000 nM.

For `COC(=O)c1cnc(Nc2cnc(C#N)cn2)cc1NCC1(C)CCNCC1` [Compound Y-026, Methyl 6-(5-cyanopyrazin-2-ylamino)-4-((4-methylpiperidin-4-yl)methylamino)nicotinate], which IC50 is on record?
The IC50 was at most 100 nM.

How did the IC50 turn out when `COC(=O)c1cnc(Nc2cnc(C#N)cn2)cc1N[C@H]1CCN[C@H](C(=O)Nc2ccccc2)C1` [Compound Y-028, Methyl 6-(5-cyanopyrazin-2-ylamino)-4-((2S,4S)-2-(phenylcarbamoyl)piperidin-4-ylamino)nicotinate] was run?
Its IC50 is ≤ 1000 nM and 100 to 1000 nM.

Which IC50 does the source give for `COC(=O)c1cnc(Nc2cnc(C#N)cn2)cc1NC1C[C@H]2CC[C@@H](C1)N2Cc1ccccc1` (stereo partly drawn) [Compound Y-029, Methyl 4-((1R,3s,5S)-8-benzyl-8-azabicyclo[3.2.1]octan-3-ylamino)-6-(5-cyanopyrazin-2-ylamino)nicotinate] here?
Its IC50 is at most 100 nM.

With `COC(=O)c1cnc(Nc2cnc(C#N)cn2)cc1N[C@H]1C[C@H]2CC[C@@H](C1)N2Cc1ccccc1` [Compound Y-030, Methyl 4-((1R,3r,5S)-8-benzyl-8-azabicyclo[3.2.1]octan-3-ylamino)-6-(5-cyanopyrazin-2-ylamino)nicotinate] as the compound, how does the IC50 read?
Its IC50 is 1000 to 10000 nM.

With `COC(=O)c1cnc(Nc2cnc(C#N)cn2)cc1NCC1(C)COC1` [Compound Y-031, Methyl 6-(5-cyanopyrazin-2-ylamino)-4-((3-methyloxetan-3-yl)methylamino)nicotinate] as the compound, how does the IC50 read?
The IC50 was ≤ 1000 nM and 100 to 1000 nM.

Which IC50 does the source give for `CCNC(=O)c1cnc(Nc2cnc(C#N)cn2)cc1NC1CC2CCC(C1)N2C` (stereo not shown) [Compound Y-034, 6-(5-Cyanopyrazin-2-ylamino)-N-ethyl-4-(8-methyl-8-azabicyclo[3.2.1]octan-3-ylamino)nicotinamide] here?
The IC50 was ≤ 1000 nM and 100 to 1000 nM.

How did the IC50 turn out when `COC(=O)c1cnc(Nc2cnc(C)cn2)cc1NCC1CCNCC1` [Compound Y-036, Methyl 6-(5-methylpyrazin-2-ylamino)-4-(piperidin-4-ylmethylamino)nicotinate] was run?
The IC50 was ≤ 1000 nM and 100 to 1000 nM.

`COC(=O)c1cnc(Nc2cnc(OC)cn2)cc1NC1CC2CCC(C1)N2C` (stereo not shown) [Compound Y-037, Methyl 6-(5-methoxypyrazin-2-ylamino)-4-(8-methyl-8-azabicyclo[3.2.1]octan-3-ylamino)nicotinate] was tested. Which IC50 did it give?
The IC50 was at most 100 nM.

For `N#Cc1cnc(Nc2cc(OCC3CCNCC3)c(N)cn2)cn1` [Compound Y-038, 5-(5-Amino-4-(piperidin-4-ylmethoxy)pyridin-2-ylamino)pyrazine-2-carbonitrile], which IC50 is on record?
Its IC50 is 1000 to 10000 nM.

For `CN(C)CC(=O)Nc1cnc(Nc2cnc(C#N)cn2)cc1OCC1CCNCC1` [Compound Y-039, N-(6-(5-Cyanopyrazin-2-ylamino)-4-(piperidin-4-ylmethoxy)pyridin-3-yl)-2-(dimethylamino)acetamide], which IC50 is on record?
The IC50 was 1000 to 10000 nM.

How did the IC50 turn out when `CN1CCC(Nc2cc(Nc3cnc(C#N)cn3)ncc2[N+](=O)[O-])CC1` [Compound Y-040, 5-(4-(1-Methylpiperidin-4-ylamino)-5-nitropyridin-2-ylamino)pyrazine-2-carbonitrile] was run?
The IC50 was at most 100 nM.

For `N#Cc1cnc(Nc2cc(NCC3CCCNC3)c(N)cn2)cn1` (stereo not shown) [Compound Y-041, 5-(5-Amino-4-(piperidin-3-ylmethylamino)pyridin-2-ylamino)pyrazine-2-carbonitrile], which IC50 is on record?
Its IC50 is at most 100 nM.

How did the IC50 turn out when `N#Cc1cnc(Nc2cc(NCCCN)c(N)cn2)cn1` [Compound Y-042, 5-(5-Amino-4-(3-aminopropylamino)pyridin-2-ylamino)pyrazine-2-carbonitrile] was run?
The IC50 was at most 100 nM.

`CN(C)CC(=O)Nc1cnc(Nc2cnc(C#N)cn2)cc1N[C@@H]1CCCNC1` [Compound Y-043, (R)—N-(6-(5-Cyanopyrazin-2-ylamino)-4-(piperidin-3-ylamino)pyridin-3-yl)-2-(dimethylamino)acetamide] was tested. Which IC50 did it give?
The IC50 was 100 to 1000 nM.

`CN(C)CC(=O)Nc1cnc(Nc2cnc(C#N)cn2)cc1NCC1CCCNC1` (stereo not shown) [Compound Y-044, N-(6-(5-Cyanopyrazin-2-ylamino)-4-(piperidin-3-ylmethylamino)pyridin-3-yl)-2-(dimethylamino)acetamide] was tested. Which IC50 did it give?
Its IC50 is 100 to 1000 nM.
